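Compound exposure: 48 hours, 5 concentrations, 96-well plates. GI50 = concentration required for 50% inhibition of growth.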 Active and inactive are the calls of the source. Cut-off read from the data, not from the text of the source: active = GI50 up to about 1.1 µM and inactive = higher. Where a SMILES comes first, the peptide text is derived from it. [ ]: non-standard residue; d: D form. The star is where a group is joined. ξ: configuration not given here. ξF = NC(Cc1ccccc1)C(=O)O; Cbz = O=C(OCc1ccccc1)*; Aib = CC(C)(N)C(=O)O
Legend:
Assay in all cases: NCI-60 cell line screen, 48 h
HT-29 = system: HT-29
MOLT-4 = system: MOLT-4
UACC-257 = system: UACC-257
SF-295 = system: SF-295
Malme-3M = system: Malme-3M
DU-145 = system: DU-145
KM12 = system: KM12
OVCAR-5 = system: OVCAR-5
CAKI-1 = system: CAKI-1
HCT-116 = system: HCT-116
OVCAR-3 = system: OVCAR-3
LOX IMVI = system: LOX IMVI
U-251 = system: U-251
786-0 = system: 786-0
SK-MEL-5 = system: SK-MEL-5
NCI-H460 = system: NCI-H460
TK-10 = system: TK-10
MDA-MB-435 = system: MDA-MB-435
HL-60 = system: HL-60
OVCAR-4 = system: OVCAR-4

Structure (SMILES) | GI50 (HT-29) | GI50 (MOLT-4) | GI50 (UACC-257) | GI50 (SF-295) | GI50 (Malme-3M) | GI50 (DU-145) | GI50 (KM12) | GI50 (OVCAR-5) | GI50 (CAKI-1) | GI50 (HCT-116) | GI50 (OVCAR-3) | GI50 (LOX IMVI) | GI50 (U-251) | GI50 (786-0) | GI50 (SK-MEL-5) | GI50 (NCI-H460) | GI50 (TK-10) | GI50 (MDA-MB-435) | GI50 (HL-60) | GI50 (OVCAR-4)
CC1(C)N=C(C2CCCN2C(=O)OCc2ccccc2)OC1=O (stereo not drawn) | > 100 µM (inactive) | > 100 µM (inactive) | > 100 µM (inactive) | > 100 µM (inactive) | > 100 µM (inactive) | > 100 µM (inactive) | > 100 µM (inactive) | > 100 µM (inactive) | > 100 µM (inactive) | > 100 µM (inactive) | > 100 µM (inactive) | > 100 µM (inactive) | > 100 µM (inactive) | > 100 µM (inactive) | > 100 µM (inactive) | > 100 µM (inactive) | > 100 µM (inactive) | > 100 µM (inactive) | > 100 µM (inactive) | –
[N-]=[N+]=NCc1cccc(Nc2cc(=O)[nH]c(=O)[nH]2)c1 | > 100 µM (inactive) | > 100 µM (inactive) | 30.8 µM (inactive) | 57.3 µM (inactive) | > 100 µM (inactive) | > 100 µM (inactive) | > 100 µM (inactive) | > 100 µM (inactive) | > 100 µM (inactive) | > 100 µM (inactive) | > 100 µM (inactive) | > 100 µM (inactive) | – | > 100 µM (inactive) | > 100 µM (inactive) | – | > 100 µM (inactive) | > 100 µM (inactive) | > 100 µM (inactive) | –
O=C(Cc1csc2[n+]1C(=O)/C(=C/c1ccc(Cl)cc1)S2)Nc1ccccc1 | 24.2 µM (inactive) | – | 19.2 µM (inactive) | 17.5 µM (inactive) | 30.1 µM (inactive) | 31.4 µM (inactive) | 22.5 µM (inactive) | 22.5 µM (inactive) | 28.1 µM (inactive) | 16.8 µM (inactive) | 12.8 µM (inactive) | 16.2 µM (inactive) | 16.2 µM (inactive) | 25.1 µM (inactive) | 10.9 µM (inactive) | 18.7 µM (inactive) | 31.6 µM (inactive) | 25.3 µM (inactive) | 20.2 µM (inactive) | 30.3 µM (inactive)
C=CC(Br)(CBr)CCC(Cl)C(C)C (stereo not drawn) | 1.66 µM (inactive) | 1.06 µM (active) | 2.25 µM (inactive) | 1.84 µM (inactive) | 1.58 µM (inactive) | 2.72 µM (inactive) | 1.47 µM (inactive) | 2.44 µM (inactive) | 2.62 µM (inactive) | 3.12 µM (inactive) | 2.02 µM (inactive) | 1.15 µM (inactive) | 1.66 µM (inactive) | – | 1.85 µM (inactive) | 1.88 µM (inactive) | 1.88 µM (inactive) | 1.82 µM (inactive) | 0.561 µM (active) | 1.49 µM (inactive)
CC(C)=CCC/C(C)=C/CC/C(C)=C/CC/C(=C/CC/C(C)=C\CC/C(C)=C/CC/C(C)=C/CC/C(C)=C/Cc1cc(O)ccc1O)CO | 4.52 µM (inactive) | – | 3.07 µM (inactive) | 1.84 µM (inactive) | 2.7 µM (inactive) | 32.6 µM (inactive) | 1.67 µM (inactive) | 25.4 µM (inactive) | 1.71 µM (inactive) | 2.84 µM (inactive) | 4.42 µM (inactive) | 2.94 µM (inactive) | 3.08 µM (inactive) | 2.98 µM (inactive) | 2.48 µM (inactive) | 9.57 µM (inactive) | 6.61 µM (inactive) | 1.12 µM (active) | 3.15 µM (inactive) | 2.51 µM (inactive)
COc1ccc(NC2=NCCO2)c2ccccc12 | > 10 µM (inactive) | > 10 µM (inactive) | – | > 10 µM (inactive) | > 10 µM (inactive) | > 10 µM (inactive) | > 10 µM (inactive) | > 10 µM (inactive) | > 10 µM (inactive) | > 10 µM (inactive) | > 10 µM (inactive) | > 10 µM (inactive) | – | – | > 10 µM (inactive) | > 10 µM (inactive) | > 10 µM (inactive) | > 10 µM (inactive) | > 10 µM (inactive) | > 10 µM (inactive)
COC(=O)C(C)(C)NC(=O)C(Cc1ccccc1)NC(=O)C(C)(C)NC(=O)OCc1ccccc1 (stereo not drawn) (Cbz-[Aib]-[ξF]-[Aib]-OMe) | > 100 µM (inactive) | > 100 µM (inactive) | > 100 µM (inactive) | > 100 µM (inactive) | > 100 µM (inactive) | > 100 µM (inactive) | – | > 100 µM (inactive) | > 100 µM (inactive) | > 100 µM (inactive) | > 100 µM (inactive) | > 100 µM (inactive) | > 100 µM (inactive) | – | > 100 µM (inactive) | > 100 µM (inactive) | > 100 µM (inactive) | > 100 µM (inactive) | > 100 µM (inactive) | > 100 µM (inactive)

Source: ChEMBL document CHEMBL1201862, “PubChem BioAssay data set” (2004)
